Source: ChEMBL document CHEMBL2074179, “Comparison of "type I" and "type II" organic cation transport by organic cation transporters and organic anion-transporting polypeptides” (J Pharmacol Exp Ther, 2001)
Several values for one entry are separate records, joined by “and”; a condition that tells them apart may be missing. Identical values can stand only once.

Assays:
[1] = molecular target: T1, Solute carrier family 22 member 1 (Homo sapiens, UniProt O15245); test: (§1) TP_TRANSPORTER: inhibition of TBuMA uptake in Xenopus laevis oocytes; type: functional, cell-based; settings: oocyte
T1 sequence (O15245 whole entry): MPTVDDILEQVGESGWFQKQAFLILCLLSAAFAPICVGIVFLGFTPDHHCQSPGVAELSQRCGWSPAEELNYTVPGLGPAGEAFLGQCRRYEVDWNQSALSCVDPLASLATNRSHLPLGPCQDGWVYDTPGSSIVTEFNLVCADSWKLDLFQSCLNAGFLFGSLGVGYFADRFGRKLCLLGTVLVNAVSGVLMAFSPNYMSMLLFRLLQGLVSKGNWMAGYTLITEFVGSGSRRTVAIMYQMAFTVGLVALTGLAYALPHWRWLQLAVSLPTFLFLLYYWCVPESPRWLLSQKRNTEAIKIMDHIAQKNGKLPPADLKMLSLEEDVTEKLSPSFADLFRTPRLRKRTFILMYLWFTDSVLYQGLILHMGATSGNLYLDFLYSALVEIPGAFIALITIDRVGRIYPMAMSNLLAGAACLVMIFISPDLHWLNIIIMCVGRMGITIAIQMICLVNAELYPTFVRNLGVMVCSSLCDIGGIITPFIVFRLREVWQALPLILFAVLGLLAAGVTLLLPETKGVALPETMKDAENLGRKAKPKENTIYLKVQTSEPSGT

[2] = molecular target: T2, Solute carrier family 22 member 1 (Rattus norvegicus, UniProt Q63089); test: as §1; type: functional, cell-based; settings: oocyte
T2 sequence (Q63089 whole entry): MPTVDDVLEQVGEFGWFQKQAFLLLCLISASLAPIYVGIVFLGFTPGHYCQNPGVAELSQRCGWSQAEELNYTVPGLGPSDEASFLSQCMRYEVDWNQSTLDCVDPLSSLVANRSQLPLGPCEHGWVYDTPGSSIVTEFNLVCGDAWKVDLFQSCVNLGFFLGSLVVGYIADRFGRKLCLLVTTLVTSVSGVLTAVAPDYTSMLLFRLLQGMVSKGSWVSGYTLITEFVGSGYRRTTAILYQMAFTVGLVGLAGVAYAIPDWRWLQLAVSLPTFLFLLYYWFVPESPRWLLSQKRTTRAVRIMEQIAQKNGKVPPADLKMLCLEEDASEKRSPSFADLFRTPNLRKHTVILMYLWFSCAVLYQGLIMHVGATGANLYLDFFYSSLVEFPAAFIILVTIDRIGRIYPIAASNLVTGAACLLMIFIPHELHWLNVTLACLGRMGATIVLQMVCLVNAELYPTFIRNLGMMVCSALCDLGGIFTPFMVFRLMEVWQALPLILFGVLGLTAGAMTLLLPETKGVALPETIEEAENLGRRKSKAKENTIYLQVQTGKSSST

[3] = molecular target: T3, Solute carrier organic anion transporter family member 1A2 (Homo sapiens, UniProt P46721); test: (§2) TP_TRANSPORTER: inhibition of Rocuronium uptake in Xenopus laevis oocytes; type: functional, cell-based; settings: oocyte
T3 sequence (P46721 whole entry): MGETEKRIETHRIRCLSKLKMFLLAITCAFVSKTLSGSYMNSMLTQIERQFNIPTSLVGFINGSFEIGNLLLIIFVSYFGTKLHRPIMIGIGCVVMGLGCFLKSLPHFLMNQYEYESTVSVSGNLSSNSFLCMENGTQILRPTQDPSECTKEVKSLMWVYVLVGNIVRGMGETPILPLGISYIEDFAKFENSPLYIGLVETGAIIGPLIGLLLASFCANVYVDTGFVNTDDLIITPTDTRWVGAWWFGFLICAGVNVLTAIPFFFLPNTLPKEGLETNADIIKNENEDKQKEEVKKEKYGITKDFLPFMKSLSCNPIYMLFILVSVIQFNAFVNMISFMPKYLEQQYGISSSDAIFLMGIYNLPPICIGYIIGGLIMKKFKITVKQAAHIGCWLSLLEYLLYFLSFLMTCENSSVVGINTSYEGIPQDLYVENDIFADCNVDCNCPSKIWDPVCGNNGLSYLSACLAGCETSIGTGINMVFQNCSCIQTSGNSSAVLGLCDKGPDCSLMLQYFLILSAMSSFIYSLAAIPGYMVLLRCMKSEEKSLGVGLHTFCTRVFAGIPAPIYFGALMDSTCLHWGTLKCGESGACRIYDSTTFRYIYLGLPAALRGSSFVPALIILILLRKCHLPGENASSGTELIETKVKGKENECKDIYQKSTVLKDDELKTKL

[4] = molecular target: T4, Solute carrier organic anion transporter family member 1A4 (Rattus norvegicus, UniProt O35913); test: as §2; type: functional, cell-based; settings: oocyte
T4 sequence (O35913 whole entry): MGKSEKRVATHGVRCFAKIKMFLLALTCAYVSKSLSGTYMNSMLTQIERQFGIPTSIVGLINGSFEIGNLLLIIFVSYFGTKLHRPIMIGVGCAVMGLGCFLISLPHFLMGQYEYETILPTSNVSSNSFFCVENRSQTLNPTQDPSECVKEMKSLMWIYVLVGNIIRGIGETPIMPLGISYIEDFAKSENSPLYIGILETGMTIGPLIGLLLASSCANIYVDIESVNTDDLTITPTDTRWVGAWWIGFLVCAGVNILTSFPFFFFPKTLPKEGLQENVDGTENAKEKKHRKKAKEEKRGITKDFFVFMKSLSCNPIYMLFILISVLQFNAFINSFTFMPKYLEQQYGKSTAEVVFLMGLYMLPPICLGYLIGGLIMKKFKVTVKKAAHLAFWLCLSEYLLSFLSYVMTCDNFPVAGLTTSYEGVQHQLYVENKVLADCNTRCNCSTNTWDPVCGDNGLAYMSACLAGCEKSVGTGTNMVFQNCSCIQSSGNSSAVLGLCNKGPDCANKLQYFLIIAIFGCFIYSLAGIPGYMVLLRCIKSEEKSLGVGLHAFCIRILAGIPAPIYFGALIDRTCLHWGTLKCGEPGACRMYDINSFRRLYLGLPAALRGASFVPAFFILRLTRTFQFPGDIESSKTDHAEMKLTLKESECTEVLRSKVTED

[5] = molecular target: T2, Solute carrier family 22 member 1; test: as §2; type: functional, cell-based; settings: oocyte
[6] = molecular target: T1, Solute carrier family 22 member 1; test: (§3) TP_TRANSPORTER: uptake in Xenopus laevis oocytes; type: functional, cell-based; settings: oocyte
[7] = molecular target: T2, Solute carrier family 22 member 1; test: as §3; type: functional, cell-based; settings: oocyte
[8] = substrate: C=C[C@H]1C[N+]2(C)CC[C@H]1C[C@H]2[C@H](O)c1ccnc2ccc(OC)cc12; test: as §3; type: functional, cell-based, Oocyte
[9] = substrate: CC[N+](C)(CC)CCNC(=O)c1ccc(N=[N+]=[N-])cc1; test: as §3; type: functional, cell-based, Oocyte
[10] = substrate: CCCC[N+](C)(CCCC)CCCC; test: as §3; type: functional, cell-based, Oocyte
[11] = substrate: [H][C@@]12CC[N+](C)(C[C@]1([H])C=C)[C@@]([H])([C@@H](O)c1ccnc3ccc(OC)cc13)C2; test: as §3; type: functional, cell-based, Oocyte

For `C=C[C@H]1C[N+]2(C)CC[C@H]1C[C@@H]2[C@@H](O)c1ccnc2ccc(OC)cc12`, the Activity [1] was “inhibitor [+]”, the Activity [2] was “inhibitor [+]” and the Activity [3] was “inhibitor [+]”.

With `CO[C@H]1C[C@H](O[C@H]2CC[C@]3(C=O)[C@H]4CC[C@]5(C)[C@@H](C6=CC(=O)OC6)CC[C@]5(O)[C@@H]4CC[C@]3(O)C2)O[C@H](C)[C@H]1O[C@@H]1O[C@H](CO[C@@H]2O[C@H](CO)[C@@H](O)[C@H](O)[C@H]2O)[C@@H](O)[C@H](O)[C@H]1O` the Activity [4] was “inhibitor [+]” and the Activity [3] was “inhibitor [+]”.

In the case of `C=CC[N+]1([C@H]2C[C@H]3[C@@H]4CC[C@H]5C[C@H](O)[C@@H](N6CCOCC6)C[C@]5(C)[C@H]4CC[C@]3(C)[C@H]2OC(C)=O)CCCC1` [ROCURONIUM], the Activity [1] is reported as “inhibitor [+]” and the Activity [5] is reported as “inhibitor [+]”.

With `CCC1C[N+]2(CCCC3(C)N=N3)C3CC45c6ccccc6N(C)C4C2CC1C3C5O` (stereo unspecified) the Activity [6] was “substrate [+]” and the Activity [7] was “substrate [+]”.

With `CC[N+](C)(CC)CCNC(=O)c1ccc(N=[N+]=[N-])cc1.[I-]` [AZIDOPROCAINAMIDE METHOIODIDE] the Activity [1] was “inhibitor [+]”, the Activity [2] was “inhibitor [+]” and the Activity [3] was “inhibitor [+]”.

`C=C[C@H]1C[N@@]2CC[C@H]1C[C@@H]2[C@@H](O)c1ccnc2ccc(OC)cc12` [QUINIDINE] was tested, and the Activity [1] was “inhibitor [+]”, the Activity [2] was “inhibitor [+]” and the Activity [3] was “inhibitor [+]”.

For `C[C@@H]1O[C@@H](O[C@H]2C[C@@H](O)[C@]3(CO)[C@H]4[C@H](O)C[C@]5(C)[C@@H](C6=CC(=O)OC6)CC[C@]5(O)[C@@H]4CC[C@]3(O)C2)[C@H](O)[C@H](O)[C@H]1O` [OUABAIN], the Activity [4] was “inhibitor [+]”.

For `CC1(CCC[N+]23CCC(CC2)CC3)N=N1`, the Activity [6] was “substrate [+]” and the Activity [7] was “substrate [+]”.

B1: Solute carrier family 22 member 1 (Homo sapiens) (protein)
chain: T1 sequence (O15245 whole entry)
B1 was tested, and the Km [8] was 19.5 µM and 20 µM, the Km [9] was 101 µM and the Km [10] was 53 µM. For the same molecule, the Km [11] was 11.5 µM and 12 µM.

B2: Solute carrier family 22 member 1 (Rattus norvegicus) (protein)
chain: T2 sequence (Q63089 whole entry)
With B2 the Km [8] was 17.3 µM and 17 µM, the Km [9] was 54 µM and the Km [10] was 34 µM. The Km [11] was 7.4 µM.
